Assay results from ChEMBL document CHEMBL4145603, “Iridoids from the Roots of Patrinia scabra and Their Inhibitory Potential on LPS-Induced Nitric Oxide Production” (J Nat Prod, 2018).

Tested on: RAW264.7
Assay: Inhibition of LPS-stimulated nitric oxide production in […] RAW264.7 cells after 24 hrs by Griess assay
Type: functional, cell-based
Settings: Mus musculus; for IC50: RAW264.7, 24 h

Row | SMILES | IC50 [µM] | inhibition
1 | CC(C)CC(=O)OCC1=CO[C@@H](OC(=O)CC(C)C)[C@H]2C1=C[C@H](O)[C@]2(O)CO | > 50 | 
2 | CC(C)CC(=O)OCC1=CO[C@H](OC(=O)CC(C)C)[C@@H]2[C@@](O)(COC(=O)CC(C)C)[C@H](O)C[C@]12O | 26 | 
3 | CC(C)CC(=O)OCC1=COC=C2C1=CC(=O)[C@]2(O)CCl | 27.6 | 
4 | COc1cc([C@@H](O)[C@@H](COC(=O)CC(C)C)Oc2c(O)cc(/C=C/COC(=O)CC(C)C)cc2OC)cc(OC)c1O | 17.8 | Dose-dependent effect
5 | CC(C)CC(=O)OCC1=CO[C@H](OC(=O)CC(C)C)[C@H]2C1(O)C[C@@H](O)[C@]2(O)COC(=O)CC(C)C (some centres undefined) | 14.7 | Dose-dependent effect
6 | CC(C)CC(=O)OCC1=COC=C2C1=CC(=O)[C@]2(O)COC(=O)CC(C)C | 17.1 | Dose-dependent effect
